Source: ChEMBL document CHEMBL1139043, “Carbonic anhydrase inhibitors. Inhibition studies of the human secretory isoform VI with anions” (Bioorg Med Chem Lett, 2007)

Molecular target: Carbonic anhydrase 6 (Homo sapiens) (UniProt P23280)
Sequence (P23280 whole entry): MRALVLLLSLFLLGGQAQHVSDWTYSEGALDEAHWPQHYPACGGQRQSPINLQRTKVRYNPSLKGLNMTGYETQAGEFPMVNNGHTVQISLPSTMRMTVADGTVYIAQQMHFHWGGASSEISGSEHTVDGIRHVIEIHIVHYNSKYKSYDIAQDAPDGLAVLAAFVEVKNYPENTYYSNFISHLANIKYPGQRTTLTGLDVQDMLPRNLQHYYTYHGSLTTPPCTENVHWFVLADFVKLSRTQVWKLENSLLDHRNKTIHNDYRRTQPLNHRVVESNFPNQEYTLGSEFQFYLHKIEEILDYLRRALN
Description: Inhibition of full length human recombinant full length CA6 expressed in Escherichia coli BL21 by CO2 hydration method

| Compound | Kinact |
| --- | --- |
| O=[As](O)(O)c1ccccc1 | 13.9 mM |
| NS(=O)(=O)O | 0.09 mM |
